Experimental findings from US20170217946A1, “AMINO-SUBSTITUTED ISOXAZOLES” (Bayer Pharma Aktiengesellschaft, priority 2014, published 2017) are described below.

SMILES strings stand for the structures.

The experiment has as its target T1, human kinase Mps-1 (Homo sapiens, UniProt P33981).
T1 construct: human full length recombinant Mps-1 kinase; GST (N); purchased Invitrogen, Karslruhe, Germany PV4071
T1 sequence (P33981 1-857): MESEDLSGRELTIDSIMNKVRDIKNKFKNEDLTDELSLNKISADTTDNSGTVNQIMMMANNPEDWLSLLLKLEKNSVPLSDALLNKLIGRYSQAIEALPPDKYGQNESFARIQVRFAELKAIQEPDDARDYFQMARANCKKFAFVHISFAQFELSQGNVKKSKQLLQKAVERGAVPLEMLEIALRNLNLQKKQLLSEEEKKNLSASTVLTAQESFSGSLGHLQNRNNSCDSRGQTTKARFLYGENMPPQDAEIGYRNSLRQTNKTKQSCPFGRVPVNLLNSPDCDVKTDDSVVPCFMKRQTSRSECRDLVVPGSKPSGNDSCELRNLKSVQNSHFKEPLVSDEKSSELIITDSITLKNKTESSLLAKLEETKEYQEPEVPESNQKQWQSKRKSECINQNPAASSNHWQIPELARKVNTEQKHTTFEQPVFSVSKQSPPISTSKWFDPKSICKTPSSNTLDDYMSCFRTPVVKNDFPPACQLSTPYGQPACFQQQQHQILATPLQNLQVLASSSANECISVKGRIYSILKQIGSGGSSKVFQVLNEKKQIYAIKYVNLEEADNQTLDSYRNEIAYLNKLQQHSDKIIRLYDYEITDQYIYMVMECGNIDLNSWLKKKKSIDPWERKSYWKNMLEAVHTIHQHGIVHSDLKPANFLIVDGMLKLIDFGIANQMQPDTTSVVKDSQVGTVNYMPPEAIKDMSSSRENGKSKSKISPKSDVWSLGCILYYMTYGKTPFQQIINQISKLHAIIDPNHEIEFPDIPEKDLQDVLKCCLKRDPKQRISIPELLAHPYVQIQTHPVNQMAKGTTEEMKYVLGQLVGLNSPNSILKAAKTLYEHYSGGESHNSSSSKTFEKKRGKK
Nature of the experiment: Mps-1 kinase assay (TR-FRET). The following applies: 10 μM ATP; read-out: Mps1 avg (IC50). In kind it is biochemical. As to the method:
The human kinase Mps-1 phosphorylates a biotinylated substrate peptide. Detection of the phosphorylated product is achieved by time-resolved fluorescence resonance energy transfer (TR-FRET) from Europium-labelled anti-phospho-Serine/Threonine antibody as donor to streptavidin labelled with cross-linked allophycocyanin (SA-XLent) as acceptor. Compounds are tested for their inhibition of the kinase activity.
N-terminally GST-tagged human full length recombinant Mps-1 kinase (purchased from Invitrogen, Karslruhe, Germany, cat. no PV4071) was used. […]
The resulting mixture was incubated 1 h at 22° C. to allow the binding of the phosphorylated peptide to the anti-phospho(Ser/Thr)-Europium-antibody. Subsequently the amount of phosphorylated substrate was evaluated by measurement of the resonance energy transfer from the Europium-labelled anti-phospho(Ser/Thr) antibody to the Streptavidin-XLent. Therefore, the fluorescence emissions at 620 nm and 665 nm after excitation at 350 nm was measured in a Viewlux TR-FRET reader (PerkinElmer LAS, Rodgau-Jügesheinn, Germany). The “blank-corrected normalized ratio” (a Viewlux specific readout, similar to the traditional ratio of the emissions at 665 nm and at […], in which blank and Eu-donor crosstalk are subtracted from the 665 nm signal before the ratio is calculated) was taken as the measure for the amount of phosphorylated substrate. […]
In general terms: TR-FRET usually uses a lanthanide donor and a delayed reading to cut background.

For orientation: IC50 means the midpoint of a concentration-inhibition curve. Take `Cc1noc(Nc2cnc(C(=O)NC3CCN(CC(F)F)CC3)cn2)c1C(=O)Nc1ccc(F)c(F)c1` [Example 1b, N-[1-(2,2-Difluoroethyl)piperidin-4-yl]-5-({4-[(3,4-difluorophenyl)carbamoyl]-3-methyl-1,2-oxazol-5-yl}amino)pyrazine-2-carboxamide]: the IC50 came out at 16 µM.
